From ChEMBL document CHEMBL1129845, “Digitalis-like compounds: Synthesis and biological evaluation of 3-(aminoalkylthio) derivatives” (Bioorg Med Chem Lett, 1997)
The source made the active and inactive calls. The rule behind the calls is not given here.

Species: Canis lupus familiaris
Assay: Displacement of [3H]ouabain binding to Na+,K+ -ATPase receptor isolated from dog kidney; NA = <50% displacement at 10e-5 M

Question: Which “-Log IC50” value does the source give for `C[C@]12CC[C@H](S)C[C@H]1CC[C@@H]1[C@@H]2CC[C@]2(C)[C@@H](C3=CC(=O)OC3)CC[C@@H]12` here?
Answer: inactive

Target: not listed separately
Assay: Displacement of [3H]ouabain binding from Na+,K+ -ATPase receptor isolated from dog kidney
Set-up: species or system Canis lupus familiaris

Question: Which “-Log IC50” value does the source give for `C[C@]12CCC3C(CC[C@@H]4C[C@@H](SCCCN)CC[C@]34C)C1=CC[C@@H]2C1=CC(=O)OC1` (stereo partly drawn) here?
Answer: 5.8

Question: For `C[C@]12CC[C@H](SCCN3CCCC3)C[C@H]1CC[C@@H]1[C@@H]2CC[C@]2(C)[C@@H](C3=CC(=O)OC3)CC[C@]12O`, which “-Log IC50” value is on record?
Answer: 6.7

Question: Which “-Log IC50” value does the source give for `C[C@]12CC[C@H](SCCCN3CCNCC3)C[C@H]1CC[C@@H]1[C@@H]2CC[C@]2(C)[C@@H](C3=CC(=O)OC3)CC[C@]12O` here?
Answer: 6.5

Question: For `C[C@]12CC[C@H](SCCCN)C[C@H]1CC[C@@H]1[C@@H]2CC[C@]2(C)[C@@H](C3=CC(=O)OC3)CC[C@@H]12`, which “-Log IC50” value is on record?
Answer: 5.8

Question: Which “-Log IC50” value does the source give for `C[C@]12CC[C@H](O)C[C@H]1CC[C@@H]1[C@@H]2CC[C@]2(C)[C@@H](C3=CC(=O)OC3)CC[C@@H]12` here?
Answer: 5.2

Question: For `C[C@]12CC[C@H](SCCN)C[C@H]1CC[C@@H]1[C@@H]2CC[C@]2(C)[C@@H](C3=CC(=O)OC3)CC[C@]12O`, which “-Log IC50” value is on record?
Answer: 7.5

Question: Which “-Log IC50” value does the source give for `C[C@]12CC[C@H](SCCCN)C[C@H]1CC[C@@H]1[C@@H]2CC[C@]2(C)[C@@H](C3=CC(=O)OC3)CC[C@]12O` here?
Answer: 7.1

Question: Which “-Log IC50” value does the source give for `C[C@]12CC[C@H](SCCCN)C[C@H]1CC[C@@H]1[C@@H]2CC[C@]2(C)[C@@H](C3=CC(=O)OC3)C[C@H]3O[C@]132` here?
Answer: 6.6

Question: Which “-Log IC50” value does the source give for `C[C@]12CC[C@H](O)C[C@H]1CC[C@@H]1[C@@H]2CC[C@]2(C)[C@@H]([C@H]3COC(=O)C3)CC[C@]12O` here?
Answer: 5.8

Question: With `C[C@]12CC[C@H](O)C[C@H]1CC[C@@H]1[C@@H]2CC[C@]2(C)[C@@H](C3=CC(=O)OC3)CC[C@]12O` [DIGITOXIGENIN] as the compound, how does the “-Log IC50” value read?
Answer: 7.2

Question: Which “-Log IC50” value does the source give for `C[C@]12CC[C@H](O)C[C@H]1CC[C@@H]1[C@@H]2CC[C@]2(C)[C@@H](C3=CC(=O)OC3)C[C@H]3O[C@]132` here?
Answer: 6.6

Question: With `C[C@]12CC[C@H](S)C[C@H]1CC[C@@H]1[C@@H]2CC[C@]2(C)[C@@H](C3=CC(=O)OC3)C[C@H]3O[C@]132` as the compound, how does the “-Log IC50” value read?
Answer: 5.6

Question: With `C[C@]12CC[C@H](SCC[N+](C)(C)C)C[C@H]1CC[C@@H]1[C@@H]2CC[C@]2(C)[C@@H](C3=CC(=O)OC3)CC[C@]12O` as the compound, how does the “-Log IC50” value read?
Answer: 7

Question: Which “-Log IC50” value does the source give for `C[C@]12CC[C@H](SCCCN)C[C@H]1CC[C@@H]1[C@@H]2CC[C@]2(C)[C@@H]([C@@H]3COC(=O)C3)CC[C@]12O` here?
Answer: 6.5

Question: With `C[C@]12CC[C@H](S)C[C@H]1CC[C@@H]1[C@@H]2CC[C@]2(C)[C@@H]([C@@H]3COC(=O)C3)CC[C@]12O` as the compound, how does the “-Log IC50” value read?
Answer: 5

Question: Which “-Log IC50” value does the source give for `CN(C)CCCS[C@H]1CC[C@@]2(C)[C@H](CC[C@@H]3[C@@H]2CC[C@]2(C)[C@@H](C4=CC(=O)OC4)CC[C@]32O)C1` here?
Answer: 7

Question: Which “-Log IC50” value does the source give for `C[C@]12CC[C@H](S)C[C@H]1CC[C@@H]1[C@@H]2CC[C@]2(C)[C@@H]([C@H]3COC(=O)C3)CC[C@]12O` here?
Answer: 5.5

Question: With `C[C@]12CC[C@H](S)C[C@H]1CC[C@@H]1[C@@H]2CC[C@]2(C)[C@@H](C3=CC(=O)OC3)CC[C@]12O` as the compound, how does the “-Log IC50” value read?
Answer: 6

Question: Which “-Log IC50” value does the source give for `C[C@]12CC[C@H](O)C[C@H]1CC[C@@H]1[C@@H]2CC[C@]2(C)[C@@H]([C@@H]3COC(=O)C3)CC[C@]12O` here?
Answer: 5.6

Question: For `C[C@]12CCC3C(CC[C@@H]4C[C@@H](O)CC[C@]34C)C1=CC[C@@H]2C1=CC(=O)OC1` (stereo partly drawn), which “-Log IC50” value is on record?
Answer: 5.5

Question: For `C[C@]12CC[C@H](SCCCN3CCCC3)C[C@H]1CC[C@@H]1[C@@H]2CC[C@]2(C)[C@@H](C3=CC(=O)OC3)CC[C@]12O`, which “-Log IC50” value is on record?
Answer: 6.8

Question: Which “-Log IC50” value does the source give for `C[C@]12CC[C@H](SCCCN)C[C@H]1CC[C@@H]1[C@@H]2CC[C@]2(C)[C@@H]([C@H]3COC(=O)C3)CC[C@]12O` here?
Answer: 6.5
